Results published in PMC12434071, “Platinum-group metal half-sandwich complexes of 1-(α-D-glucopyranosyl)-4-hetaryl-1,2,3-triazoles: synthesis, solution equilibrium studies, and investigation of their anticancer and antimicrobial activities” (Frontiers in Chemistry, 2025).

Experiments:
ID8 cells = test: MTT reduction assay on ID8 cells; format: cell-based; details: maximal inhibition; 4 h treatment; maximum concentration 100 µM
Method: (§1) FIGURE 5 The ruthenium, osmium, and iridium complexes of ligands 4a, 4b, and 5a decrease MTT reduction. For MTT assays, 4 × 10^3 A2780 cells, 3 × 10^3 ID8 cells, or 6 × 10^3 human primary fibroblasts were plated into 96-well plates. Cells were treated with the compounds in the concentrations indicated for 4 h. Data are represented as average ± SD, from four biological replicates on A2780, and from three biological replicates on ID8 and human primary fibroblasts. For the datasets of 5a and Os-5a on human primary fibroblasts, the data represent four biological replicates. Individual assays were performed in duplicate. Values were normalized for vehicle-treated cells, and the absorbance for vehicle-treated cells equals 1. Normality was assessed using the D'Agostino-Pearson test. Statistical significance was assessed using a two-way ANOVA test followed by Tukey's post hoc test. For better visibility, normality, transformations, statistical tests, and p values are presented in an MS Excel sheet at https://figshare.com/s/3a0aa60b66f3f746f41e. Color code: black-free ligand (4a,b or 5a), khaki-ruthenium complex (Ru-4a,b), green-iridium complex (Ir-4a,b), blue-osmium complex (Os-4a,b or Os-5a), and red-rhodium complex (Rh-4a,b). An MTT reduction assay measures the activity of mitochondrial complex I and can be used to detect toxicity ([[…] et al., 2016]). The assay was performed in a manner similar to that described by [[…] et al. (2023b)]. Briefly, cells were plated into 96-well plates the day before the assay. Cells were treated with the compounds for 4 h; then, MTT was added to a 0.5 mg/mL final concentration, and cells were incubated at 37°C in a cell incubator for 40-60 min, as a function of the cell line being assessed. The culture medium was removed, the reduced MTT dye was dissolved in dimethylsulfoxide, and plates were measured in a plate photometer (Thermo Scientific Multiscan GO spectrophotometer, Waltham, MA, United States) at 540 nm. […] In calculations, the readings for these wells were considered to 1, and all readings were expressed relative to these values. […]

[1] = test system: human primary dermal fibroblasts; test: MTT reduction assay on human primary dermal fibroblasts; format: cell-based; details: maximal inhibition; 4 h treatment; maximum concentration 100 µM
Method: as §1

[2] = pH-potentiometric titration, protonation constants (pKa) of the ligands; format: physicochemical; details: 0.20 M KCl, 25.0°C; N-heterocyclic ring of the ligand
Method: In order to obtain information on the acidbase character of the ligands and on the stoichiometry and stability of the complexes present in aqueous medium, potentiometric titrations were carried out in selected systems. Based on the results, both 3a and 3b, having good enough solubility in water, are capable of releasing one hydrogen ion from the fully protonated forms in the measurable pH range (see Figure 3, “pK”). The calculated pK a values appear in Table 4; these values belong to the N-heterocyclic ring of the ligands. […]. For comparison, the previously prepared β-anomeric pair of 3a, compound 3a-β ([Kacsir et al., 2021]) in Table 4, was also studied.
For solution studies, doubly deionized and ultra-filtered water was obtained from a Milli-Q RG (Millipore) water purification system. pH-potentiometric measurements were carried out at a constant ionic strength of 0.20 M KCl and at 25.0°C. Carbonate-free KOH solutions of known concentrations (ca. 0.2 M) were used as titrant. […]. A Mettler Toledo DL50 titrator equipped with a DG114-SC combined glass electrode was used for the pH-potentiometric measurements. […] The titrations were performed in the pH range of 2.0–11.0 in equilibrium-controlled mode, during which the pH equilibrium was assumed to be reached if a change in the measured potential was less than 0.1 mV within 90 s. […]

[3] = pH-potentiometric titration, stability constants (logβ) of ML complexes; format: physicochemical; details: [(η^5-Cp*)Rh]^2+; 0.20 M KCl, 25.0°C
Excerpt: […]. […] Comparing the two metal ion containing systems, the complexation with [(η^6-p-cym)Ru]^2+, starts at a more acidic pH, but hydrolytic processes occur already in the physiological pH range due to the higher affinity of the metal ion to hydrolysis. For the [(η^5-Cp*)Rh]^2+, these processes are shifted towards higher pH; […].
For solution studies, doubly deionized and ultra-filtered water was obtained from a Milli-Q RG (Millipore) water purification system. pH-potentiometric measurements were carried out at a constant ionic strength of 0.20 M KCl and at 25.0°C. Carbonate-free KOH solutions of known concentrations (ca. 0.2 M) were used as titrant. […]. A Mettler Toledo DL50 titrator equipped with a DG114-SC combined glass electrode was used for the pH-potentiometric measurements. […] The titrations were performed in the pH range of 2.0–11.0 in equilibrium-controlled mode, during which the pH equilibrium was assumed to be reached if a change in the measured potential was less than 0.1 mV within 90 s. […] The protonation constants of the ligands and the overall stability constants of the complexes, βp,q,r = [MpHqLr]/[M]^p[H]^q[L]^r (where “M” stands for [(η^5-Cp*)Rh(H2O)3]^2+ and “L” represents the completely deprotonated form of the ligand), were calculated with the aid of the SUPERQUAD ([Gans et al., 1985]) and PSEQUAD ([Zékány and Nagypál, 1985]) computer programs, respectively. […]

O=C(OC[C@H]1O[C@H](n2cc(-c3ccc4ccccc4n3)nn2)[C@H](OC(=O)c2ccccc2)[C@@H](OC(=O)c2ccccc2)[C@@H]1OC(=O)c1ccccc1)c1ccccc1 [Complex 4b, 1-(2’,3’,4’,6’-Tetra-O-benzoyl-α-D-glucopyranosyl)-4-(quinolin-2-yl)-1,2,3-triazole]
ID8 MTT max % (ID8 cells): 0% | Fibroblast MTT max % [1]: 0%

OC[C@H]1O[C@H](n2cc(-c3ccccn3)nn2)[C@H](O)[C@@H](O)[C@@H]1O [Complex 3a, 1-(α-D-Glucopyranosyl)-4-(pyridin-2-yl)-1,2,3-triazole]
pK a [2]: 3.59 (1) | logβ [ML] [3]: 5.50 (4)

CCCCC(=O)OC[C@H]1O[C@H](n2cc(-c3ccccn3)nn2)[C@H](OC(=O)CCCC)[C@@H](OC(=O)CCCC)[C@@H]1OC(=O)CCCC [Complex 5a, 1-(2’,3’,4’,6’-Tetra-O-pentanoyl-α-D-glucopyranosyl)-4-(pyridin-2-yl)-1,2,3-triazole]
ID8 MTT max % (ID8 cells): 15.89% | Fibroblast MTT max % [1]: 15.72%

O=C(OC[C@H]1O[C@H](n2cc(-c3ccccn3)nn2)[C@H](OC(=O)c2ccccc2)[C@@H](OC(=O)c2ccccc2)[C@@H]1OC(=O)c1ccccc1)c1ccccc1 [Complex 4a, 1-(2’,3’,4’,6’-Tetra-O-benzoyl-α-D-glucopyranosyl)-4-(pyridin-2-yl)-1,2,3-triazole]
ID8 MTT max % (ID8 cells): 0% | Fibroblast MTT max % [1]: 0%
